Key:
Assay type in all cases: cell-based
UACC-257 = assay: NCI sixty human tumor cell line screen, Melanoma panel; settings: UACC-257, Melanoma, NCI protocol
Procedure: (§1) The in vitro anticancer activity studies for these N-((1-benzyl-1H-1,2,3-triazol-4-yl)methyl) arylamide analogues were carried out at the National Cancer Institute, USA.
(§2) The N-((1-benzyl-1H-1,2,3-triazol-4-yl)methyl)arylamide analogues have been tested at NCI, USA, against sixty human tumor cell lines derived from nine cancer types (leukemia, non-small cell lung cancer, colon cancer, CNS cancer, melanoma cancer, ovarian cancer, renal cancer, prostate cancer and breast cancer). For these compounds results are expressed as growth inhibition (GI50) values as per NCI protocol.

RPMI-8226 = assay: NCI sixty human tumor cell line screen, Leukemia panel; settings: RPMI-8226, Leukemia, NCI protocol
Procedure: as §1, §2

K-562 = assay: as above; settings: K562, K-562, Leukemia, NCI protocol
Procedure: as §1, §2

MOLT-4 = assay: as above; settings: MOLT-4, Leukemia, NCI protocol
Procedure: as §1, §2

HL-60(TB) = assay: as above; settings: NCI protocol
Procedure: as §1, §2

CCRF-CEM = assay: as above; settings: NCI protocol
Procedure: as §1, §2

SR = assay: as above; settings: NCI protocol
Procedure: as §1, §2

786-0 = assay: NCI sixty human tumor cell line screen, Renal panel; settings: 786-0, Renal, NCI protocol
Procedure: as §1, §2

HS 578T = assay: NCI sixty human tumor cell line screen, Breast panel; settings: NCI protocol
Procedure: as §1, §2

NCI-H23 = assay: NCI sixty human tumor cell line screen, Non-small-cell-lung panel; settings: NCI protocol
Procedure: as §1, §2

HCT-15 = assay: NCI sixty human tumor cell line screen, Colon panel; settings: HCT-15, Colon, NCI protocol
Procedure: as §1, §2

HCC-2998 = assay: as above; settings: HCC-2998, Colon, NCI protocol
Procedure: as §1, §2

IGROV1 = assay: NCI sixty human tumor cell line screen, Ovarian panel; settings: IGROV-1, NCI protocol
Procedure: as §1, §2

A549 = assay: IC50 of compounds and E7010 against A549 cell line
Source text: (§3) In the present investigation, an attempt has been made, in view of the biological importance of both 2-anilino nicotinyl structure and 1,2,3-triazoles group. […] Introduction of triazole group on 2-anilino nicotinyl moiety resulted that there is enhancement of biological activity of representative compounds (1a, 1b, 1c, 1d, 1f, 1g, 1i, 1k, 6b and 6g) compare with E7010. Biological data of representative compounds has been provided in Table 1. • (Novel sulfonamides as potential, systemically active antitumor agents. Yoshino, H.; Ueda, N.; Niijima, J.; Sugumi, H.; Kotake, Y.; Koyanagi, N.; Yoshimatsu, K.; Asada, M.; Watanabe, T.; Nagasu, T. J. Med. Chem. 1992, 35, 2496-2497)

MALME-3M = assay: NCI sixty human tumor cell line screen, Melanoma panel; settings: NCI protocol
Procedure: as §1, §2

HOP-92 = assay: NCI sixty human tumor cell line screen, Non-small-cell-lung panel; settings: HOP-92, Non-small-cell-lung, NCI protocol
Procedure: as §1, §2

NCI-H322M = assay: as above; settings: NCI protocol
Procedure: as §1, §2

OVCAR-5 = assay: NCI sixty human tumor cell line screen, Ovarian panel; settings: OVCAR-5, Ovarian, NCI protocol
Procedure: as §1, §2

MCF-7 = assay: IC50 of compounds and E7010 against MCF-7 cell line
Source text: as §3

MCF7 = assay: NCI sixty human tumor cell line screen, Breast panel; settings: NCI protocol
Procedure: as §1, §2

[1] = Homo sapiens, A549, A549 cell line
[2] = Homo sapiens, MCF7, MCF-7 cell line

SMILES	GI50 (UACC-257)	GI50 (RPMI-8226)	GI50 (K-562)	GI50 (MOLT-4)	GI50 (HL-60(TB))	GI50 (CCRF-CEM)	GI50 (SR)	GI50 (786-0)	GI50 (HS 578T)	GI50 (NCI-H23)	GI50 (HCT-15)	GI50 (HCC-2998)	GI50 (IGROV1)	IC50 (A549; A549 cell line)	IC50 (A549; [1])	GI50 (MALME-3M)	GI50 (HOP-92)	GI50 (NCI-H322M)	GI50 (OVCAR-5)	IC50 (MCF-7; [2])	further results
O=C(NCc1cn(Cc2cccc(Oc3ccccc3)c2)nn1)c1cccnc1Nc1ccccc1 [Compound 1a, N-((1-(3-Phenoxybenzyl)-1H-1,2,3-triazol-4-yl)methyl)-2-(phenylamino)nicotinamide]	1.42 µM	3.61 µM	3.69 µM	3.74 µM	3.74 µM	3.34 µM	2.56 µM	23.2 µM	30.9 µM	3.73 µM	3.81 µM	3.7 µM	30.7 µM	1.54 µM	1.25 to 3.98 µM	–	–	–	–	–	–
O=C(NCc1cn(Cc2cccc(Oc3ccccc3)c2)nn1)c1cccnc1Nc1ccc(F)cc1 [Compound 1b, 2-(4-Fluorophenylamino)-N-((1-(3-phenoxybenzyl)-1H-1,2,3-triazol4-yl)methyl)nicotinamide]	6.87 µM	–	–	–	–	–	–	5.59 µM	5.9 µM	29.9 µM	–	–	5.89 µM	1.69 µM	1.25 to 3.98 µM	15.1 µM	10.7 µM	5.29 µM	4.23 µM	–	–
COc1ccc(Nc2ncccc2C(=O)NCc2cn(Cc3cccc(Oc4ccccc4)c3)nn2)cc1 [Compound 1e, 2-(4-Methoxyphenylamino)-N-((1-(3-phenoxybenzyl)-1H-1,2,3-triazol-4-yl)methyl) nicotinamide]	4.82 µM	4.84 µM	3.48 µM	2.91 µM	2.66 µM	3.8 µM	–	6.73 µM	–	3.45 µM	3.93 µM	2.53 µM	–	–	–	3.8 µM	5.67 µM	5.24 µM	≥ 100 µM	–	–
COc1ccc(Nc2ncccc2C(=O)NCc2cn(Cc3cccc(Oc4ccccc4)c3)nn2)c(OC)c1 [Compound 1g, 2-(2,4-Dimethoxyphenylamino)-N-((1-(3-phenoxybenzyl)-1H-1,2,3-triazol-4-yl)methyl) nicotinamide]	–	3.03 µM	0.75 µM	3.65 µM	2.21 µM	1.2 µM	–	4.06 µM	2.94 µM	2.24 µM	2.89 µM	3.33 µM	5.96 µM	1.57 µM	1.25 to 3.98 µM	4.07 µM	–	–	8.34 µM	0.74 to 2.51 µM	IC50 (MCF-7; MCF-7 cell line): 0.74 µM; GI50 (MCF7): 0.65 µM
COc1cc(Nc2ncccc2C(=O)NCc2cn(Cc3cccc(Oc4ccccc4)c3)nn2)cc(OC)c1 [Compound 1i, 2-(3,5-Dimethoxyphenylamino)-N-((1-(3-phenoxybenzyl)-1H-1,2,3-triazol-4-yl)methyl) nicotinamide]	4.86 µM	5.25 µM	5.05 µM	4.85 µM	3.97 µM	4.19 µM	–	6.73 µM	–	6.22 µM	3.89 µM	9.6 µM	–	1.93 µM	1.25 to 3.98 µM	5.81 µM	4.67 µM	6.15 µM	≥ 100 µM	0.74 to 2.51 µM	IC50 (MCF-7; MCF-7 cell line): 0.93 µM
O=C(NCc1cn(Cc2cccc(Oc3ccccc3)c2)nn1)c1cccnc1NCc1ccc(Cl)cc1 [Compound 1k, 2-(4-Chlorobenzylamino)-N-((1-(3-phenoxybenzyl)-1H-1,2,3-triazol-4-yl)methyl) nicotinamide]	3.83 µM	3.12 µM	3.24 µM	3.28 µM	3.39 µM	3.05 µM	3.31 µM	–	2.72 µM	–	3.39 µM	4.17 µM	9.03 µM	1.79 µM	1.25 to 3.98 µM	5.69 µM	4.23 µM	–	5.62 µM	–	GI50 (MCF7): 2.99 µM
